Test results: ChEMBL document CHEMBL3392986, “Hydroxamic acids block replication of hepatitis C virus” (J Med Chem, 2015)
Active and inactive are the calls of the source. No cut-off for these calls is given here.

How the values were obtained:
[1] = target: T1, Histone deacetylase 8 (Homo sapiens) (UniProt Q9BY41); experiment: Inhibition of full length human HDAC8 expressed in Escherichia coli assessed as inhibition of fluorophore 7-amino-4-methylcoumarin release by fluorescence assay
T1 sequence (whole entry): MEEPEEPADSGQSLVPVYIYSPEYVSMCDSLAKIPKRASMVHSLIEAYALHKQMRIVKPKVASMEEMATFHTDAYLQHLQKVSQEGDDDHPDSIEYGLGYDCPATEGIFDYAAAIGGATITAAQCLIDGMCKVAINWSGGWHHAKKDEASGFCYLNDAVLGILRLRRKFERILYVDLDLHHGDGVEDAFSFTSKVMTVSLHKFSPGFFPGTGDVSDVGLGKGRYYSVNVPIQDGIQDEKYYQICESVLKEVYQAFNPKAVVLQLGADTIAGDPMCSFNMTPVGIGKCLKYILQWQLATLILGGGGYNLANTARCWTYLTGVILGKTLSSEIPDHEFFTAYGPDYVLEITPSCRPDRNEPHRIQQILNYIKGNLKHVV

[2] = target: Histone deacetylase 9 (Homo sapiens) (UniProt Q9UKV0); experiment: Inhibition of full length C-terminal His-tagged human HDAC9 (amino acids 604 to 1066 ) expressed in baculovirus expression system assessed as inhibition of fluorophore 7-amino-4-methylcoumarin release by fluorescence assay
[3] = target: Histone deacetylase 5 (Homo sapiens) (UniProt Q9UQL6); experiment: Inhibition of full length N-terminal GST-tagged human HDAC5 expressed in baculovirus expression system assessed as inhibition of fluorophore 7-amino-4-methylcoumarin release by fluorescence assay
[4] = target: T2, Protein deacetylase HDAC6 (Homo sapiens) (UniProt Q9UBN7); experiment: Inhibition of full length N-terminal GST-tagged human HDAC6 expressed in baculovirus expression system assessed as inhibition of fluorophore 7-amino-4-methylcoumarin release by fluorescence assay
T2 sequence (whole entry): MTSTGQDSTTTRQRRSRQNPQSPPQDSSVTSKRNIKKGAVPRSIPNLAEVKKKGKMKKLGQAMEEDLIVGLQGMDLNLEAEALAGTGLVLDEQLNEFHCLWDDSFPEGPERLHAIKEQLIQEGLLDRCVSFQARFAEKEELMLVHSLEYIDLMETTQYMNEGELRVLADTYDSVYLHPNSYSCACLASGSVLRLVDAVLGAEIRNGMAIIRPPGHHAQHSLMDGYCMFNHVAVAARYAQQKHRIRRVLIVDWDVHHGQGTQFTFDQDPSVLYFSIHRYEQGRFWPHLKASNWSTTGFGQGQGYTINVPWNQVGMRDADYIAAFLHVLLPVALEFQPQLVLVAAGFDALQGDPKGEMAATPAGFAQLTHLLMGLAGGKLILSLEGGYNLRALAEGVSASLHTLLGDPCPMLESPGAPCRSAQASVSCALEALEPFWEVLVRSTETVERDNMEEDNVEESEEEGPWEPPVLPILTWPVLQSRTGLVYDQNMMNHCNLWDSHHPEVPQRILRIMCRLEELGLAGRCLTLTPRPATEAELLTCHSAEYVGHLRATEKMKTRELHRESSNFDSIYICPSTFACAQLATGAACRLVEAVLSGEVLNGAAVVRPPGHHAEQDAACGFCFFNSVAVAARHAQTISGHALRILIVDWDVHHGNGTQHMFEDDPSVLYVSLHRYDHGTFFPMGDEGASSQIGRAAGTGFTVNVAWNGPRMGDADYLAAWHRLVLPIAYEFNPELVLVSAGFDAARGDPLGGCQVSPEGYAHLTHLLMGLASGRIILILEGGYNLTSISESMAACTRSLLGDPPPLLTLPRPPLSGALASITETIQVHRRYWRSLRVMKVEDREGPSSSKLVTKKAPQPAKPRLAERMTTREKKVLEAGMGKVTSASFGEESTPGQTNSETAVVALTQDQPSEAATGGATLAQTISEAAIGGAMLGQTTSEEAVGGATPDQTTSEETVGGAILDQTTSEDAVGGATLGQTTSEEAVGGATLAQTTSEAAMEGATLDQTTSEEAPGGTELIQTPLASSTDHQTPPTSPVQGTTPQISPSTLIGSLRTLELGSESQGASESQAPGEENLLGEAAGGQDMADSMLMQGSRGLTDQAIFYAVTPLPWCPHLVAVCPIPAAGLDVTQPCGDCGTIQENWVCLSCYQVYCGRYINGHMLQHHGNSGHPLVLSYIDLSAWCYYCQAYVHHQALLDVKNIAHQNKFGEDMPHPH

[5] = Cytotoxicity against human HuH7 cells assessed as inhibition of cell viability after 3 days by CellTiter 96 assay
[6] = target: T3, Histone deacetylase 7 (Homo sapiens) (UniProt Q8WUI4); experiment: Inhibition of full length N-terminal GST-tagged human HDAC7 (amino acids 518 to end) expressed in baculovirus expression system assessed as inhibition of fluorophore 7-amino-4-methylcoumarin release by fluorescence assay
T3 sequence (whole entry): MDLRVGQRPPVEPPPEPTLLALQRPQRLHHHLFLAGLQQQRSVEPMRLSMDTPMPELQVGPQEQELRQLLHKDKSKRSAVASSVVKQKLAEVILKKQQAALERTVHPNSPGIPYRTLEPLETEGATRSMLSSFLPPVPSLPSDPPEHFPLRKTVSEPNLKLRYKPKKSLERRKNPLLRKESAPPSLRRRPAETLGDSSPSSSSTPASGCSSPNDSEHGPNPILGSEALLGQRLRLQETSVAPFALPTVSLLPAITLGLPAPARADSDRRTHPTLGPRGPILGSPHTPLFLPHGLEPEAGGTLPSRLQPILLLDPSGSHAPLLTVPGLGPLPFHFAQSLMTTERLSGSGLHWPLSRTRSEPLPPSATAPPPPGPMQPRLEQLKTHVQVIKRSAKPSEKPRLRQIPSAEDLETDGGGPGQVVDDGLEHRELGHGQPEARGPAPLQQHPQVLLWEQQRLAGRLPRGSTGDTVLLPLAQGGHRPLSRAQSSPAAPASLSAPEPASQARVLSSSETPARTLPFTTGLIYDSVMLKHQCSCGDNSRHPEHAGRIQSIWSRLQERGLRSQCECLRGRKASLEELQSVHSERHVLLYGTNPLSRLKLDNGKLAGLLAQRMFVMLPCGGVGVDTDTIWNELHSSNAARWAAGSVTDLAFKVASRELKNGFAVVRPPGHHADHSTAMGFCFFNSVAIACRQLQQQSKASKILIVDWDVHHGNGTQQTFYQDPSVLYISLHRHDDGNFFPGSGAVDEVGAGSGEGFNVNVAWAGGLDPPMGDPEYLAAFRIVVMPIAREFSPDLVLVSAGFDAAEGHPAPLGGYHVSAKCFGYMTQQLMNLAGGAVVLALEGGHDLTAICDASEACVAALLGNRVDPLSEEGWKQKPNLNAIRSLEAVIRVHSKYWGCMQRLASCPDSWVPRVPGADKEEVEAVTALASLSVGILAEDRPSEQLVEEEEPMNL

Hepatitis C virus = experiment: Antiviral activity against HCV genotype 1b infected in human Huh7 cells after 3 days by luciferase reporter gene assay; type: functional, cell-based, Hepacivirus hominis; conditions: Huh-7, 72 h

Chain of Histone deacetylase 9 (Homo sapiens) (Q9UKV0 whole entry, the tested form may be a part): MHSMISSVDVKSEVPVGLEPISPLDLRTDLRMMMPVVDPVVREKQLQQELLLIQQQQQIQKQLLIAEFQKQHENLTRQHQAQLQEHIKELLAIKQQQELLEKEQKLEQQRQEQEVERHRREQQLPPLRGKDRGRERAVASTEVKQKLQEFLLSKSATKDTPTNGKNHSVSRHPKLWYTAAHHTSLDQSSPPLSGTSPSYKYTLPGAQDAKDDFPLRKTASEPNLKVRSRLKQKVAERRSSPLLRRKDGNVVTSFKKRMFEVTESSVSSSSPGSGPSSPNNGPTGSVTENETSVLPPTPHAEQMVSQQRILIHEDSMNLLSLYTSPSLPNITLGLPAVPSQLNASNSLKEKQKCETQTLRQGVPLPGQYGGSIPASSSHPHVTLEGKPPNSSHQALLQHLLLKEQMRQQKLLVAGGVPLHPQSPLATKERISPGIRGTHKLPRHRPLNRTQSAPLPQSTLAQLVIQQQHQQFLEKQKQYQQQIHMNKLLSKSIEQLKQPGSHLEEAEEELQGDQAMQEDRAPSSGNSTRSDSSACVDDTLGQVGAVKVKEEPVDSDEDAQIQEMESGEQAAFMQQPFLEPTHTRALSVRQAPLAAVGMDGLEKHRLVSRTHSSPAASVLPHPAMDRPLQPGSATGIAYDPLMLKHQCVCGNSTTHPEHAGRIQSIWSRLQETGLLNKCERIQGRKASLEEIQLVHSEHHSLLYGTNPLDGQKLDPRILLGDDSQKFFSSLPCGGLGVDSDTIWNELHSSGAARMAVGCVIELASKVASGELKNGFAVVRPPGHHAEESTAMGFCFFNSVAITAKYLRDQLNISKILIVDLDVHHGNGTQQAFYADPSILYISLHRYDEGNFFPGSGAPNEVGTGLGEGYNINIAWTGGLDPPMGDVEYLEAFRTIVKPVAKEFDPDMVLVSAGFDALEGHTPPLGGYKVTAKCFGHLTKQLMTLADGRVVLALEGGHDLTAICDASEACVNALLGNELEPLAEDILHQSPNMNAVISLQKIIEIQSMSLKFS
Chain of Histone deacetylase 5 (Homo sapiens) (Q9UQL6 whole entry): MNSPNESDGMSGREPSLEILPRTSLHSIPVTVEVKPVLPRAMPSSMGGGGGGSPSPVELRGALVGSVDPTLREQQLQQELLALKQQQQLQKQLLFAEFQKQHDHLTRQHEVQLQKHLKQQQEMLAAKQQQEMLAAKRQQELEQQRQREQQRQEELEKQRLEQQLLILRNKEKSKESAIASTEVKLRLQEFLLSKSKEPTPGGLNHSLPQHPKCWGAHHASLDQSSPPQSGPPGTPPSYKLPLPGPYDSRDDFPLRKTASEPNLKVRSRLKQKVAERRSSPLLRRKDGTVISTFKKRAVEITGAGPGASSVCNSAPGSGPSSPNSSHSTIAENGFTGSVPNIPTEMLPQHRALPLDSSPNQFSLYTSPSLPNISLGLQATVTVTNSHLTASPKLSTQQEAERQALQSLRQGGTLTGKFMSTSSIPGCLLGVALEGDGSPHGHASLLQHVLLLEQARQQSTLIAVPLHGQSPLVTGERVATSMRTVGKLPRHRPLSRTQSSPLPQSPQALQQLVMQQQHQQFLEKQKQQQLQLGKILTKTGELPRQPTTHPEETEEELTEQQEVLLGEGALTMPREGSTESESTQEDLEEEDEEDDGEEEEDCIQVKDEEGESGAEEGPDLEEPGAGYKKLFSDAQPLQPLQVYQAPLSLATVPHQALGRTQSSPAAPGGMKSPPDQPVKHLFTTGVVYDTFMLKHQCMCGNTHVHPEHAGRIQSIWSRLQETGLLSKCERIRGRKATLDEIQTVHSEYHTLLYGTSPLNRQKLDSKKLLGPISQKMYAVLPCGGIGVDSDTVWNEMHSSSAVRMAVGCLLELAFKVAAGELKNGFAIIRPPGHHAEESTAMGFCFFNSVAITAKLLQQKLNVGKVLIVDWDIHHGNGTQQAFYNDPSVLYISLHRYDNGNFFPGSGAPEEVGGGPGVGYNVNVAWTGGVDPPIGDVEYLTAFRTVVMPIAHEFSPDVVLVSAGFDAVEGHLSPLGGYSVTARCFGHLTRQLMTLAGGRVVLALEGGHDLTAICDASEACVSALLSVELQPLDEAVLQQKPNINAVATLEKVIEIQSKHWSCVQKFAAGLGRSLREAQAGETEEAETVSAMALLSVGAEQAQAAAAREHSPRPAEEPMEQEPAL

O=C(NO)c1sc2ccccc2c1S(=O)(=O)c1ccccc1
inhibition [1]: Active | inhibition [2]: inactive | inhibition [3]: inactive | inhibition [4]: inactive | CC50 at 72 h [5]: 57 µM | inhibition [6]: inactive | EC50 (Hepatitis C virus): 0.61 µM
